# Assay results from article PMC5386833 (Oncogene, 2016).
# Target: BRCA1/BARD1 (Homo sapiens, UniProt P38398+Q99728)
# Assay: ReBiL luminescence protein interaction assay, BRCA1/BARD1 negative control
# Details: dosing above 10 μM, 10% serum
# Sequence of BRCA1/BARD1 (P38398 whole entry, species assumed): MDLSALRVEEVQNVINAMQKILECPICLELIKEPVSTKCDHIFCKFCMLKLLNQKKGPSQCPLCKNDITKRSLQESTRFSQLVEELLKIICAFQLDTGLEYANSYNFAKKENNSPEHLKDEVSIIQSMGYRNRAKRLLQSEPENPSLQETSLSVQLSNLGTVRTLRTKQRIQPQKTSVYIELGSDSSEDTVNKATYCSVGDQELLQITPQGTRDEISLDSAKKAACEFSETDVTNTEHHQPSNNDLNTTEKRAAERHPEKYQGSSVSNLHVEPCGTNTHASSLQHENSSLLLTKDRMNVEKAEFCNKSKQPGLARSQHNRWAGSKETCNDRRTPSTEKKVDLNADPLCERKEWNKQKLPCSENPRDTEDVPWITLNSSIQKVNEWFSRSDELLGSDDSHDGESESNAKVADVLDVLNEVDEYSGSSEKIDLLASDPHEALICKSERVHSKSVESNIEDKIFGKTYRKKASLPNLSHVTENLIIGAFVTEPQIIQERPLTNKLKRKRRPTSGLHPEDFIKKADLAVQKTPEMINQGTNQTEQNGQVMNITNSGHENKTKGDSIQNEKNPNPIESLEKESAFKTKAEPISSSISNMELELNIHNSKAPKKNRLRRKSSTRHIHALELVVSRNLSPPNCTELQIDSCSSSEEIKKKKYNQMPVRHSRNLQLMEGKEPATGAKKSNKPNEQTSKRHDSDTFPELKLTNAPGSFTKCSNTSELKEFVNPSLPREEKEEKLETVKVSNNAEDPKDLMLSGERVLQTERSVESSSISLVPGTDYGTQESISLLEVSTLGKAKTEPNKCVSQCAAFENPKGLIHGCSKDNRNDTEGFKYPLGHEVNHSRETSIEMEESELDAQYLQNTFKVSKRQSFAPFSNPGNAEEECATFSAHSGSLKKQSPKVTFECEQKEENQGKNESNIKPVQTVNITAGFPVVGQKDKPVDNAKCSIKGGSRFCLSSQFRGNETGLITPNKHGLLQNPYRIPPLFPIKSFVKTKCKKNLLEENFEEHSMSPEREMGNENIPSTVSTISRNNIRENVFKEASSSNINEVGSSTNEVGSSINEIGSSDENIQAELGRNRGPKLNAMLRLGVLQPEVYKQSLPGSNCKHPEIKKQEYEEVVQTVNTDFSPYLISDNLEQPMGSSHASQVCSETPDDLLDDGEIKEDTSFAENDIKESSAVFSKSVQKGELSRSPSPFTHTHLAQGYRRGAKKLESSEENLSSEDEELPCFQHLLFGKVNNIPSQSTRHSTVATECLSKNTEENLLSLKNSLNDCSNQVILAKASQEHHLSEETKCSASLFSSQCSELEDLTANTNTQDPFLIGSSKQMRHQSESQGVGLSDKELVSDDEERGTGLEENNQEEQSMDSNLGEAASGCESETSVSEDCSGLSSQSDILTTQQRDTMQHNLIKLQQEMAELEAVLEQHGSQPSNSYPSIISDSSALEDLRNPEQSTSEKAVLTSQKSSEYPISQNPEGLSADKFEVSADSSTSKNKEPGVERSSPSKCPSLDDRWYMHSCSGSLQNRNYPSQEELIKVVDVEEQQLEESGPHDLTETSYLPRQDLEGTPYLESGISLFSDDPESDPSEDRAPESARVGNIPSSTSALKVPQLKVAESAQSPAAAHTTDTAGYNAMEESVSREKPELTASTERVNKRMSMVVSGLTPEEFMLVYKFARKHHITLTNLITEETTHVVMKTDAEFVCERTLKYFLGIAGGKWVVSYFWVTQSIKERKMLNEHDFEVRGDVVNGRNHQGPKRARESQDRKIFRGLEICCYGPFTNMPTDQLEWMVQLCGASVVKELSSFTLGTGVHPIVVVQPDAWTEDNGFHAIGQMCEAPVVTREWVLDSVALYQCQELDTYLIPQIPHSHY
# Sequence of BRCA1/BARD1 (Q99728 whole entry, species assumed): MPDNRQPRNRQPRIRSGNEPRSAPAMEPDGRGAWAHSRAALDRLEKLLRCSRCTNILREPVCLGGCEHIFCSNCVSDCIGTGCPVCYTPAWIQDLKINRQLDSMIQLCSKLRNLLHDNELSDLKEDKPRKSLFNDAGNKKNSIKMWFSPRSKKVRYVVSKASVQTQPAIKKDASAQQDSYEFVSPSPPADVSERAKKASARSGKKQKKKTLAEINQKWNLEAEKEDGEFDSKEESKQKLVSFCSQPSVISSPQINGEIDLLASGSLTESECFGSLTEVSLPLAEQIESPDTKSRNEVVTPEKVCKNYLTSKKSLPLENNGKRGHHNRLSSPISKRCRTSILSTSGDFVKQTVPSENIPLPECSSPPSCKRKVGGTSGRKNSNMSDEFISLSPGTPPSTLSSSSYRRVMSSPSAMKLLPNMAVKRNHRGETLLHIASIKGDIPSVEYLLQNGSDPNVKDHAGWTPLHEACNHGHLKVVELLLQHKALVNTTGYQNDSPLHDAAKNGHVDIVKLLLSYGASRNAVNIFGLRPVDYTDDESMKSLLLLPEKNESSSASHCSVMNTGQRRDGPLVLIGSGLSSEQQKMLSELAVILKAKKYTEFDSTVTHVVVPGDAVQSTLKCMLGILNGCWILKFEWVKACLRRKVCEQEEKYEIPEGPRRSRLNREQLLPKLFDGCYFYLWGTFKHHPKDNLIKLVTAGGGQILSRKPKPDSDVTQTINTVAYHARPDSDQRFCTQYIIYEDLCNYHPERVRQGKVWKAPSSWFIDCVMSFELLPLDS
smiles,measurement,value
COc1ccc(C2=N[C@@H](c3ccc(Cl)cc3)[C@@H](c3ccc(Cl)cc3)N2C(=O)N2CCNC(=O)C2)c(OC(C)C)c1 [Nutlin-3a],ReBiL signal suppression in BRCA1/BARD1 cell line above 10 μM,nonspecific activity
